Assay results published in BindingDB's records for patent US20240190824 (Ono Pharmaceutical Co., 2024).

Legend:
[1] = molecular target: T1, Potassium channel subfamily K member 2 (Homo sapiens, UniProt O95069); assay: TREK-1 Manual Patch Clamp (hMPC) assay
T1 sequence (O95069 whole entry): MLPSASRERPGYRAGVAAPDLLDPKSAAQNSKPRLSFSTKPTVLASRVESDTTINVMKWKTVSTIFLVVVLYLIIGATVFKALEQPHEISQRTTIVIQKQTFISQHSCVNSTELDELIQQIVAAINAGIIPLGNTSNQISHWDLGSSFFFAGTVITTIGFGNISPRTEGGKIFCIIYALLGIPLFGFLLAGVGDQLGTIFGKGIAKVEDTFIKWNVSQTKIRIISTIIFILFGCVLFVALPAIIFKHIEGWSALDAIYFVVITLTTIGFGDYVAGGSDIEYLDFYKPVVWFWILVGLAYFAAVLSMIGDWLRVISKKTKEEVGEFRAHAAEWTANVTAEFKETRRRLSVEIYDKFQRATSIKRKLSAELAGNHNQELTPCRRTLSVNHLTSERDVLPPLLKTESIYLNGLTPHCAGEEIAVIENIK
Experimental: TBDCHO-K1 cells stably expressing human TREK-1 or HEK293 cells stably expressing human TREK-2 are plated on glass coverslips, and voltage clamped in the whole-cell configuration of the patch clamp technique. Cells were voltage clamped at a holding potential of −80 mV and the stepped to 0 mV for 500 msec. The voltage was subsequently ramped from −120 mV to +80 mV over a 500 msec duration. This step-ramp protocol was repeated every 10 sec.

[2] = molecular target: T1, Potassium channel subfamily K member 2; assay: Thallium flux assay

IC50 [1] [nM] | IC50 [2] [nM] | Compound
 | 390 | Cc1cc(COc2ccc(Cl)c(C(=O)Nc3ncc(C#Cc4ccccc4)cc3C)c2)on1 [US20240190824, Compound 83]
 | 220 | CC(C)(C)OC(=O)Nc1ccc(Cl)c(C(=O)Nc2c(F)cc(C#Cc3ccccc3)cc2F)c1 [US20240190824, Compound 30]
 | 490 | Cc1cc(C#Cc2ccccc2)cnc1NC(=O)c1cc(OCC2CCOC2)ccc1Cl (stereo unspecified) [US20240190824, Compound 85]

Second part, the compound before the results:

Compound | IC50 [1] [nM] | IC50 [2] [nM]
Cc1cc(C#Cc2cccc(F)c2)nc(C)c1NC(=O)c1cc(NC(=O)OC(C)(C)C)ccc1Cl [US20240190824, Compound 11] | 32 | 410
Cc1cc(C#Cc2ccccc2)cc(F)c1NC(=O)c1cc(NC(=O)OC(C)(C)C)ccc1Cl [US20240190824, Compound 29] |  | 210
